Key:
rice flat sedge = assay: Test Example 3: herbicidal effect by foliage application, Wagner pot (Table 18, symbol E); type: in vivo, rice flat sedge (Cyperus iria); settings: 320 g/ha
Outline: (§1)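 Plants were sown in alluvial soil held under 0.1–0.5 cm standing water and grown 14 days in a greenhouse at 25–30 °C. An emulsifiable formulation, water-diluted to the set dose, was then sprayed onto the foliage, and effects were scored three weeks later using previously defined criteria.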

southern crabgrass [1] = assay: Test Example 5: herbicidal effect by foliage application, plastic box (Table 20, symbol F); type: in vivo, southern crabgrass (Digitaria ciliaris); settings: foliage application, 320 g/ha, 3 weeks after application
Outline: (§2)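 Plants sown in sterilized diluvial soil and grown 14 days in a greenhouse at 25° C to 30° C, then sprayed on the foliage with the compound's emulsion diluted in water to a predetermined herbicide amount. Injury to weeds and crops scored three weeks after application on a visual rating scale.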

wild oat [2] = assay: Test Example 4: herbicidal effect by soil treatment (Table 19, symbol I); type: in vivo, wild oat (Avena fatua); settings: 320 g/ha
Outline: (§3)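 Three weeks of greenhouse growth at 25° C. to 30° C. followed a uniform surface spray of water-diluted emulsion at a predetermined herbicide amount. Seeds had been sown beforehand under about 1.5 cm of sterilized diluvial soil. Grading followed criteria set out in an earlier test.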

wild oat [3] = assay: Test Example 5: herbicidal effect by foliage application, plastic box (Table 20, symbol I); type: in vivo, wild oat (Avena fatua); settings: foliage application, 320 g/ha, 3 weeks after application
Outline: as §2

oval-leafed pondweed = assay: Test Example 1: herbicidal activity, application before weed generation under submerged conditions (Table 16, symbol C); type: in vivo, oval-leafed pondweed (Monochoria vaginalis); settings: 320 g/ha applied herbicide
Outline: (§4)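 Submerged Wagner pots (alluvial soil, 4 cm water) sown with weed seeds and planted with 2.5-leaf rice seedlings; emulsifiable concentrate diluted in water applied to water surface on sowing day. Held in greenhouse at 25-30 °C; injury scored 0-5 by herbicidal rate after three weeks.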

Italian ryegrass [4] = assay: Test Example 5: herbicidal effect by foliage application, plastic box (Table 20, symbol K); type: in vivo, Italian ryegrass (Lolium multiflorum); settings: foliage application, 320 g/ha, 3 weeks after application
Outline: as §2

blackgrass [5] = assay: Test Example 4: herbicidal effect by soil treatment (Table 19, symbol J); type: in vivo, blackgrass (Alopecurus myosuroides); settings: 320 g/ha
Outline: as §3

Chinese sprangletop = assay: Test Example 3: herbicidal effect by foliage application, Wagner pot (Table 18, symbol D); type: in vivo, chinese sprangletop (Leptochloa chinensis); settings: 320 g/ha
Outline: as §1

persian speedwell [6] = assay: Test Example 4: herbicidal effect by soil treatment (Table 19, symbol R); type: in vivo, Persian speedwell (Veronica persica); settings: 320 g/ha
Outline: as §3

Japanese bulrush = assay: Test Example 1: herbicidal activity, application before weed generation under submerged conditions (Table 16, symbol B); type: in vivo, Japanese bulrush (Schoenoplectus juncoides); settings: 320 g/ha applied herbicide
Outline: as §4

lambsquarters [7] = assay: Test Example 4: herbicidal effect by soil treatment (Table 19, symbol O); type: in vivo, lambsquarters (Chenopodium album); settings: 320 g/ha
Outline: as §3

barnyard grass [8] = assay: Test Example 5: herbicidal effect by foliage application, plastic box (Table 20, symbol H); type: in vivo, barnyard grass (Echinochloa crus-galli); settings: foliage application, 320 g/ha, 3 weeks after application
Outline: as §2

late watergrass = assay: Test Example 1: herbicidal activity, application before weed generation under submerged conditions (Table 16, symbol A); type: in vivo, late watergrass (Echinochloa oryzicola); settings: 320 g/ha applied herbicide
Outline: as §4

lambsquarters [9] = assay: Test Example 5: herbicidal effect by foliage application, plastic box (Table 20, symbol O); type: in vivo, lambsquarters (Chenopodium album); settings: foliage application, 320 g/ha, 3 weeks after application
Outline: as §2

green foxtail [10] = assay: Test Example 4: herbicidal effect by soil treatment (Table 19, symbol G); type: in vivo, green foxtail (Setaria viridis); settings: 320 g/ha
Outline: as §3

Italian ryegrass [11] = assay: Test Example 4: herbicidal effect by soil treatment (Table 19, symbol K); type: in vivo, Italian ryegrass (Lolium multiflorum); settings: 320 g/ha
Outline: as §3

barnyard grass [12] = assay: Test Example 4: herbicidal effect by soil treatment (Table 19, symbol H); type: in vivo, barnyard grass (Echinochloa crus-galli); settings: 320 g/ha
Outline: as §3

windgrass [13] = assay: Test Example 4: herbicidal effect by soil treatment (Table 19, symbol L); type: in vivo, windgrass (Apera spica-venti); settings: 320 g/ha
Outline: as §3

blackgrass [14] = assay: Test Example 5: herbicidal effect by foliage application, plastic box (Table 20, symbol J); type: in vivo, blackgrass (Alopecurus myosuroides); settings: foliage application, 320 g/ha, 3 weeks after application
Outline: as §2

redroot pigweed = assay: Test Example 4: herbicidal effect by soil treatment (Table 19, symbol N); type: in vivo, redroot pigweed (Amaranthus retroflexus); settings: 320 g/ha
Outline: as §3

barnyard grass [15] = assay: Test Example 3: herbicidal effect by foliage application, Wagner pot (Table 18, symbol H); type: in vivo, barnyard grass (Echinochloa crus-galli); settings: 320 g/ha
Outline: as §1

velvetleaf [16] = assay: Test Example 5: herbicidal effect by foliage application, plastic box (Table 20, symbol M); type: in vivo, velvetleaf (Abutilon theophrasti); settings: foliage application, 320 g/ha, 3 weeks after application
Outline: as §2

velvetleaf [17] = assay: Test Example 4: herbicidal effect by soil treatment (Table 19, symbol M); type: in vivo, velvetleaf (Abutilon theophrasti); settings: 320 g/ha
Outline: as §3

chickweed = assay: Test Example 4: herbicidal effect by soil treatment (Table 19, symbol P); type: in vivo, common chickweed (Stellaria media); settings: 320 g/ha
Outline: as §3

persian speedwell [18] = assay: Test Example 5: herbicidal effect by foliage application, plastic box (Table 20, symbol R); type: in vivo, Persian speedwell (Veronica persica); settings: foliage application, 320 g/ha, 3 weeks after application
Outline: as §2

windgrass [19] = assay: Test Example 5: herbicidal effect by foliage application, plastic box (Table 20, symbol L); type: in vivo, windgrass (Apera spica-venti); settings: foliage application, 320 g/ha, 3 weeks after application
Outline: as §2

green foxtail [20] = assay: Test Example 5: herbicidal effect by foliage application, plastic box (Table 20, symbol G); type: in vivo, green foxtail (Setaria viridis); settings: foliage application, 320 g/ha, 3 weeks after application
Outline: as §2

southern crabgrass [21] = assay: Test Example 4: herbicidal effect by soil treatment (Table 19, symbol F); type: in vivo, southern crabgrass (Digitaria ciliaris); settings: 320 g/ha
Outline: as §3

Row | Structure (SMILES) | herbicidal effect on E (rice flat sedge), rating 0-5 (rice flat sedge) | effect on southern crabgrass (F) (southern crabgrass [1]) | herbicidal effect rating, I: wild oat (wild oat [2]) | effect on wild oat (I) (wild oat [3]) | Herbicidal effect on C: oval-leafed pondweed (grade 0-5) (oval-leafed pondweed) | effect on Italian ryegrass (K) (Italian ryegrass [4]) | herbicidal effect rating, J: blackgrass (blackgrass [5]) | herbicidal effect on D (Chinese sprangletop), rating 0-5 (Chinese sprangletop) | herbicidal effect rating, R: persian speedwell (persian speedwell [6]) | Herbicidal effect on B: Japanese bulrush (grade 0-5) (Japanese bulrush) | herbicidal effect rating, O: lambsquarters (lambsquarters [7]) | effect on barnyard grass (H) (barnyard grass [8]) | Herbicidal effect on A: late watergrass (grade 0-5) (late watergrass) | effect on lambsquarters (O) (lambsquarters [9]) | herbicidal effect rating, G: green foxtail (green foxtail [10]) | herbicidal effect rating, K: Italian ryegrass (Italian ryegrass [11]) | herbicidal effect rating, H: barnyard grass (barnyard grass [12]) | herbicidal effect rating, L: windgrass (windgrass [13]) | effect on blackgrass (J) (blackgrass [14]) | herbicidal effect rating, N: redroot pigweed (redroot pigweed) | further results
1 | Cc1nn(C)c(=O)c(-c2c(-c3ccc(C(C)C)cc3)sc3ccc(F)cc23)c1O [2-014] | 5 (Herbicidal rate of 90% or more (almost completely withered)) | 5 (Herbicidal rate of 90% or more (almost completely withered)) | 0 (Herbicidal rate of 5% or less (almost no effect)) | 2 (Herbicidal rate of 20% or more and less than 40%) | 0 (Herbicidal rate of 5% or less (almost no effect)) | 5 (Herbicidal rate of 90% or more (almost completely withered)) | 0 (Herbicidal rate of 5% or less (almost no effect)) | 5 (Herbicidal rate of 90% or more (almost completely withered)) | 5 (Herbicidal rate of 90% or more (almost completely withered)) | 0 (Herbicidal rate of 5% or less (almost no effect)) | 5 (Herbicidal rate of 90% or more (almost completely withered)) | 5 (Herbicidal rate of 90% or more (almost completely withered)) | 3 (Herbicidal rate of 40% or more and less than 70%) | 5 (Herbicidal rate of 90% or more (almost completely withered)) | 2 (Herbicidal rate of 20% or more and less than 40%) | 4 (Herbicidal rate of 70% or more and less than 90%) | 4 (Herbicidal rate of 70% or more and less than 90%) | 3 (Herbicidal rate of 40% or more and less than 70%) | 4 (Herbicidal rate of 70% or more and less than 90%) | 5 (Herbicidal rate of 90% or more (almost completely withered)) | herbicidal effect on H (barnyard grass), rating 0-5 (barnyard grass [15]): 5 (Herbicidal rate of 90% or more (almost completely withered)); effect on velvetleaf (M) (velvetleaf [16]): 5 (Herbicidal rate of 90% or more (almost completely withered)); herbicidal effect rating, M: velvetleaf (velvetleaf [17]): 3 (Herbicidal rate of 40% or more and less than 70%); herbicidal effect rating, P: chickweed (chickweed): 4 (Herbicidal rate of 70% or more and less than 90%); effect on persian speedwell (R) (persian speedwell [18]): 5 (Herbicidal rate of 90% or more (almost completely withered)); effect on windgrass (L) (windgrass [19]): 5 (Herbicidal rate of 90% or more (almost completely withered)); effect on green foxtail (G) (green foxtail [20]): 5 (Herbicidal rate of 90% or more (almost completely withered)); herbicidal effect rating, F: southern crabgrass (southern crabgrass [21]): 0 (Herbicidal rate of 5% or less (almost no effect))
2 | CCCCCCOc1ccc(-c2sc3ccc(F)cc3c2-c2c(OC(=O)CCC)c(C)nn(C)c2=O)cc1 [2-041] | 1 (Herbicidal rate of 5% or more and less than 20%) | 0 (Herbicidal rate of 5% or less (almost no effect)) | 0 (Herbicidal rate of 5% or less (almost no effect)) | 0 (Herbicidal rate of 5% or less (almost no effect)) | 0 (Herbicidal rate of 5% or less (almost no effect)) | 0 (Herbicidal rate of 5% or less (almost no effect)) | 0 (Herbicidal rate of 5% or less (almost no effect)) | 3 (Herbicidal rate of 40% or more and less than 70%) | 0 (Herbicidal rate of 5% or less (almost no effect)) | 0 (Herbicidal rate of 5% or less (almost no effect)) | 2 (Herbicidal rate of 20% or more and less than 40%) | 0 (Herbicidal rate of 5% or less (almost no effect)) | 3 (Herbicidal rate of 40% or more and less than 70%) | 3 (Herbicidal rate of 40% or more and less than 70%) | 0 (Herbicidal rate of 5% or less (almost no effect)) | 0 (Herbicidal rate of 5% or less (almost no effect)) | 0 (Herbicidal rate of 5% or less (almost no effect)) | 0 (Herbicidal rate of 5% or less (almost no effect)) | 0 (Herbicidal rate of 5% or less (almost no effect)) | 0 (Herbicidal rate of 5% or less (almost no effect)) | herbicidal effect on H (barnyard grass), rating 0-5 (barnyard grass [15]): 3 (Herbicidal rate of 40% or more and less than 70%); effect on velvetleaf (M) (velvetleaf [16]): 1 (Herbicidal rate of 5% or more and less than 20%); herbicidal effect rating, M: velvetleaf (velvetleaf [17]): 0 (Herbicidal rate of 5% or less (almost no effect)); herbicidal effect rating, P: chickweed (chickweed): 0 (Herbicidal rate of 5% or less (almost no effect)); effect on persian speedwell (R) (persian speedwell [18]): 3 (Herbicidal rate of 40% or more and less than 70%); effect on windgrass (L) (windgrass [19]): 0 (Herbicidal rate of 5% or less (almost no effect)); effect on green foxtail (G) (green foxtail [20]): 0 (Herbicidal rate of 5% or less (almost no effect)); herbicidal effect rating, F: southern crabgrass (southern crabgrass [21]): 0 (Herbicidal rate of 5% or less (almost no effect))

From patent US20230085307A1, “PYRIDAZINONE COMPOUND AND HERBICIDE” (NISSAN CHEMICAL CORPORATION, priority 2019, published 2023)
